Assay results reported in PubChem BioAssay AID318 (DTP/NCI, 2004).
“And” between values parts separate entries of the source, which are not always exact repeats. Equal values may be shown once. Toxic doses and inconclusive results are not listed.

System: BDF1 mice, P815 leukemia ip, survival T/C
Assay: NCI In Vivo Anticancer Drug Screen. Data for tumor model P815 Mast Cell Leukemia (Ascitic) (intraperitoneal) in B6D2F1 (BDF1) mice
Conditions: higher = longer survival
Description: The antitumor activity of compounds was measured in mice bearing transplantable tumors. Survival or tumor size were measured and the results are expressed as the measurement made in the treated group (T) divided by the measurement made in the vehicle treated control group (C). The tumor model used in this assay is P815 Mast Cell Leukemia (Ascitic) (intraperitoneal) in B6D2F1 (BDF1) mice

## COS(C)(=O)=O
endpoint: survival time, mean or median, dose: 12.5 mg/kg/injection, schedule: Q01DX010 (ip), vehicle: saline
  T/C: 100 % of control
endpoint: survival time, mean or median, dose: 25.0 mg/kg/injection, schedule: Q01DX010 (ip), vehicle: saline
  T/C: 100 % of control
endpoint: survival time, mean or median, dose: 50.0 mg/kg/injection, schedule: Q01DX010 (ip), vehicle: saline
  T/C: 100 % of control

## CS(=O)(=O)OCCCl
endpoint: survival time, mean or median, dose: 18.8 mg/kg/injection, schedule: Q01DX010 (ip), vehicle: saline
  T/C: 100 % of control and 105 % of control
endpoint: survival time, mean or median, dose: 37.5 mg/kg/injection, schedule: Q01DX010 (ip), vehicle: saline
  T/C: 100 % of control
endpoint: survival time, mean or median, dose: 75.0 mg/kg/injection, schedule: Q01DX010 (ip), vehicle: saline
  T/C: 100 % of control and 111 % of control

## CCCCOP(=S)(N1CC1)N1CC1
endpoint: survival time, mean or median, dose: 4.0 mg/kg/injection, schedule: Q01DX010 (ip), vehicle: saline
  T/C: 120 % of control and 122 % of control
endpoint: survival time, mean or median, dose: 16.0 mg/kg/injection, schedule: Q01DX010 (ip), vehicle: saline
  T/C: 90 % of control and 122 % of control
endpoint: survival time, mean or median, dose: 32.0 mg/kg/injection, schedule: Q01DX010 (ip), vehicle: saline
  T/C: 90 % of control

## CC1CN=C(c2ccc(NC(=O)c3ccc(C(=O)Nc4ccc(C5=NCC(C)N5)cc4)cc3)cc2)N1 (stereo not drawn)
endpoint: survival time, mean or median, dose: 10.0 mg/kg/injection, schedule: Q01DX010 (ip), vehicle: saline
  T/C: 165 % of control
endpoint: survival time, mean or median, dose: 15.0 mg/kg/injection, schedule: Q01DX010 (ip), vehicle: saline
  T/C: 156 % of control
endpoint: survival time, mean or median, dose: 22.0 mg/kg/injection, schedule: Q01DX010 (ip), vehicle: saline
  T/C: 182 % of control
endpoint: survival time, mean or median, dose: 33.0 mg/kg/injection, schedule: Q01DX010 (ip), vehicle: saline
  T/C: 186 % of control

## NC(Cc1ccc(N(CCCl)CCCl)cc1)C(=O)O (stereo not drawn)
endpoint: survival time, mean or median, dose: 4.0 mg/kg/injection, schedule: Q01DX010 (ip), vehicle: other
  T/C: 120 % of control
endpoint: survival time, mean or median, dose: 8.0 mg/kg/injection, schedule: Q01DX010 (ip), vehicle: other
  T/C: 100 % of control

## CC(=O)O[C@]1(C(C)=O)CC[C@H]2[C@@H]3C[C@H](C)C4=CC(=O)C=C[C@]4(C)[C@@]3(F)[C@@H](O)C[C@@]21C
endpoint: survival time, mean or median, dose: 3.13 mg/kg/injection, schedule: Q01DX010 (sc), vehicle: steriod suspending solution
  T/C: 100 % of control
endpoint: survival time, mean or median, dose: 6.25 mg/kg/injection, schedule: Q01DX010 (sc), vehicle: steriod suspending solution
  T/C: 100 % of control
endpoint: survival time, mean or median, dose: 12.5 mg/kg/injection, schedule: Q01DX010 (sc), vehicle: steriod suspending solution
  T/C: 100 % of control and 106 % of control
endpoint: survival time, mean or median, dose: 25.0 mg/kg/injection, schedule: Q01DX010 (sc), vehicle: steriod suspending solution
  T/C: 100 % of control
endpoint: survival time, mean or median, dose: 100.0 mg/kg/injection, schedule: Q01DX010 (sc), vehicle: steriod suspending solution
  T/C: 93 % of control

## NOCc1ccsn1
endpoint: median survival time, dose: 15.0 mg/kg/injection, schedule: Q01DX010 (ip), vehicle: saline sonified
  T/C: 100 % of control
endpoint: median survival time, dose: 30.0 mg/kg/injection, schedule: Q01DX010 (ip), vehicle: saline sonified
  T/C: 100 % of control
endpoint: median survival time, dose: 60.0 mg/kg/injection, schedule: Q01DX010 (ip), vehicle: saline sonified
  T/C: 93 % of control

## CN(Cc1cnc2nc(N)nc(N)c2n1)c1c(Cl)cc(C(=O)NC(CCC(=O)O)C(=O)O)cc1Cl (stereo not drawn)
endpoint: survival time, mean or median, dose: 5.0 mg/kg/injection, schedule: Q01DX015 (ip), vehicle: carboxymethylcellulose (CMC)
  T/C: 150 % of control
endpoint: survival time, mean or median, dose: 10.0 mg/kg/injection, schedule: Q01DX015 (ip), vehicle: carboxymethylcellulose (CMC)
  T/C: 164 % of control
endpoint: survival time, mean or median, dose: 13.2 mg/kg/injection, schedule: Q01DX015 (ip), vehicle: carboxymethylcellulose (CMC)
  T/C: 166 % of control
endpoint: survival time, mean or median, dose: 20.0 mg/kg/injection, schedule: Q01DX015 (ip), vehicle: carboxymethylcellulose (CMC)
  T/C: 164 % of control
endpoint: survival time, mean or median, dose: 25.0 mg/kg/injection, schedule: Q01DX015 (ip), vehicle: carboxymethylcellulose (CMC)
  T/C: 190 % of control
endpoint: survival time, mean or median, dose: 30.0 mg/kg/injection, schedule: Q01DX015 (ip), vehicle: carboxymethylcellulose (CMC)
  T/C: 181 % of control
endpoint: survival time, mean or median, dose: 45.0 mg/kg/injection, schedule: Q01DX015 (ip), vehicle: carboxymethylcellulose (CMC)
  T/C: 179 % of control
endpoint: survival time, mean or median, dose: 67.5 mg/kg/injection, schedule: Q01DX015 (ip), vehicle: carboxymethylcellulose (CMC)
  T/C: 164 % of control
endpoint: survival time, mean or median, dose: 100.0 mg/kg/injection, schedule: Q01DX015 (ip), vehicle: carboxymethylcellulose (CMC)
  T/C: 121 % of control

## CC(=O)Nc1ccc(/C=N/Nc2ccc([N+](=O)[O-])cn2)cc1
endpoint: survival time, mean or median, dose: 31.3 mg/kg/injection, schedule: Q01DX010 (ip), vehicle: saline
  T/C: 100 % of control
endpoint: survival time, mean or median, dose: 62.5 mg/kg/injection, schedule: Q01DX010 (ip), vehicle: saline
  T/C: 100 % of control
endpoint: survival time, mean or median, dose: 125.0 mg/kg/injection, schedule: Q01DX010 (ip), vehicle: saline
  T/C: 100 % of control
endpoint: survival time, mean or median, dose: 250.0 mg/kg/injection, schedule: Q01DX010 (ip), vehicle: saline
  T/C: 88 % of control

## CN=C(NC)c1ccc(NC(=O)c2ccc(C(=O)Nc3ccc(C(=NC)NC)cc3)c(Cl)c2)cc1
endpoint: survival time, mean or median, dose: 18.0 mg/kg/injection, schedule: Q01DX010 (ip), vehicle: saline
  T/C: 91 % of control
endpoint: survival time, mean or median, dose: 27.0 mg/kg/injection, schedule: Q01DX010 (ip), vehicle: saline
  T/C: 100 % of control
